Experimental data as given in patent publication US20040209799A1, “JAK/STAT pathway inhibitors and the uses thereof” (priority 2000, published 2004).

Tests used:
Assay type in all cases: biochemical
[1] = biological target: LCK (Lymphoid T-cell protein tyrosine kinase) (Homo sapiens, UniProt P06239); test: poly (Glu, Tyr) 4:1 ELISA, LCK
Description: (§1) To further examine the inhibition characteristics of DBH (and its variants) to a variety of cellular components, a poly (Glu, Tyr) 4:1 ELISA was performed. Hymenialdisine (H), DBH (as marine sponge extracts: see Chipman and Faulkner, 1997), and three variant forms of synthetic DBH: the free base form of DBH (DBH-2FB), a trifluoroacetic acid salt form of DBH (DBH-2S), and a methanesulfonic acid salt form of DBH (DBH 1) were solubilized in DMSO, and tested for the ability to inhibit; ZAP-70 (ζ-associated polypeptide of 70 kDa) protein tyrosine kinase, BTK (Bruton's agarnrnaglobulinaemia tyrosine kinase), JAK3 (Janus kinase 3) protein tyrosine kinase, LCK (Lymphoid T-cell protein tyrosine kinase), and IGFR (Insulin-like growth factor receptor) protein tyrosine kinase.
(§2) Maxisorb microtiter plates (Nalge Nunc International, Rochester, N.Y.) were coated with 1 mg/ml Poly(Glu,Tyr) 4:1 (Sigma, St. Louis, Mo.) solubilized in phosphate buffered saline (PBS), 0.02% sodium azide. On the day of the assay, microtiter plates were washed 4× with TBS-Tween (25 mM Tris pH 8.0, 150 mM NaCl, 0.05% Tween 20) using a Skatron plate washer (Skatron Instruments, Sterling, Va.). 200 μl of sterile blocking buffer (3% BSA in PBS, 0.02% sodium azide) was added to each well, and the microtiter plates were incubated at 37° C. for 1 hour. The blocking buffer was removed, the plates washed, and various concentrations of inhibitor were added in a 20 μl volume to the wells. 60 μl of the appropriate substrate mix was then added. Substrate mixes were prepared as described in Table 2:
(§3) Following addition of the substrate mix, 20 μl of the test protein tyrosine kinase (in 1× assay buffer) was added. Kinase reactions were incubated 30 min at 37° C., followed by washes in the Skatron plate washer. 100 μl of biotinylated PT-66 anti-phosphotyrosine monoclonal antibody (Sigma, St. Louis, Mo.) (diluted 1:4000 in 0.5% BSA, sterile-filtered TBS) was added to each well, and incubated for an additional 30 minutes at 37° C. […] The samples were then read at 450 nm in a plate reader.

[2] = biological target: IGFR (Insulin-like growth factor receptor) protein tyrosine kinase (Homo sapiens, UniProt P08069); test: poly (Glu, Tyr) 4:1 ELISA, IGFR
Description: as §1, §2, §3

[3] = biological target: T1, JAK3 (Janus kinase 3) protein tyrosine kinase (Homo sapiens, UniProt P52333); test: poly (Glu, Tyr) 4:1 ELISA, JAK3; details: inhibitors solubilized in DMSO, read-out: ec-50 (effective concentration for 50% inhibition) of JAK3
T1 sequence (P52333 1-1124): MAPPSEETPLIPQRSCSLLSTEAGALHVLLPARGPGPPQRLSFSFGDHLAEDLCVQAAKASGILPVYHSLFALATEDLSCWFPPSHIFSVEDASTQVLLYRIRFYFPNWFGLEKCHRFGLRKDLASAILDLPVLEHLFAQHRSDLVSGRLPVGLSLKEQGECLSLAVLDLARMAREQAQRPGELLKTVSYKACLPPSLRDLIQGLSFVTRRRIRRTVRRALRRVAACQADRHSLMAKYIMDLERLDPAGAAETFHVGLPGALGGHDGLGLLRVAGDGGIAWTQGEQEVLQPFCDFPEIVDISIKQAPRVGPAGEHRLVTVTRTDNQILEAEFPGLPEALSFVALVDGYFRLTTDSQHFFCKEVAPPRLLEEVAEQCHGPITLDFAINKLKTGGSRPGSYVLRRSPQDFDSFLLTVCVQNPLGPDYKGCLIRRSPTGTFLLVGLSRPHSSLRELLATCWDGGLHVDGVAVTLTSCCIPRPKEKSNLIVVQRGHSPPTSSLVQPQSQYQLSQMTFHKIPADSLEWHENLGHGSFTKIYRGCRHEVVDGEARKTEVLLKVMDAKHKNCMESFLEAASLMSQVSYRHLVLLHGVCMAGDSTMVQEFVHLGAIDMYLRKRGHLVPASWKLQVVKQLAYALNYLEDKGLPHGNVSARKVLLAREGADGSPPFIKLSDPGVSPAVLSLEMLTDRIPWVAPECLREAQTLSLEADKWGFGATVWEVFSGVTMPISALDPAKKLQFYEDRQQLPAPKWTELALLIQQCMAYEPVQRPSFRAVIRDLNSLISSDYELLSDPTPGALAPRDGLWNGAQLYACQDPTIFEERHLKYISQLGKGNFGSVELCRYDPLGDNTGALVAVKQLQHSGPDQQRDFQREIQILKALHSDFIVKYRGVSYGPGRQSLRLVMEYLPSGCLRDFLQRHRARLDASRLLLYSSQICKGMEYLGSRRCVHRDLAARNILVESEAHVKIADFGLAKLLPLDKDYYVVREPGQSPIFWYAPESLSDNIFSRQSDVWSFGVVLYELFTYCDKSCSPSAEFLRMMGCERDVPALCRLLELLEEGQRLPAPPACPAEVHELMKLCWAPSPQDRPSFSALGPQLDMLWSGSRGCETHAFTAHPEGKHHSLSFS
Description: as §1, §2, §3

[4] = ec-50 values ranging from hundreds of micromolar to no inhibition (data not shown)

Sequence of LCK (Lymphoid T-cell protein tyrosine kinase) (P06239 whole entry, species assumed): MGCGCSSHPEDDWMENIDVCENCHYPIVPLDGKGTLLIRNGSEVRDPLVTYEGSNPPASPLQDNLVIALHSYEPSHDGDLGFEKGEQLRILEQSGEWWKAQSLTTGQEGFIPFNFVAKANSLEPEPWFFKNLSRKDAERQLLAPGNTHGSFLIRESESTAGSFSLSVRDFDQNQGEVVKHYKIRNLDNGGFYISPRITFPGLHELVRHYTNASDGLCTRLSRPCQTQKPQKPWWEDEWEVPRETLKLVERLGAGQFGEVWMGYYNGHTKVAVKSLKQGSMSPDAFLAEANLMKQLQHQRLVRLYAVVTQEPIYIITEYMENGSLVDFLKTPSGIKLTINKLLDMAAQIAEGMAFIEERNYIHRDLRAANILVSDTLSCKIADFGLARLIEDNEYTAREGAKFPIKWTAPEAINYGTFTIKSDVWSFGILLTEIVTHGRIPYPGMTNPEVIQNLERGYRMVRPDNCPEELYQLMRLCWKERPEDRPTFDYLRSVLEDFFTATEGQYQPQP
Sequence of IGFR (Insulin-like growth factor receptor) protein tyrosine kinase (P08069 31-1367): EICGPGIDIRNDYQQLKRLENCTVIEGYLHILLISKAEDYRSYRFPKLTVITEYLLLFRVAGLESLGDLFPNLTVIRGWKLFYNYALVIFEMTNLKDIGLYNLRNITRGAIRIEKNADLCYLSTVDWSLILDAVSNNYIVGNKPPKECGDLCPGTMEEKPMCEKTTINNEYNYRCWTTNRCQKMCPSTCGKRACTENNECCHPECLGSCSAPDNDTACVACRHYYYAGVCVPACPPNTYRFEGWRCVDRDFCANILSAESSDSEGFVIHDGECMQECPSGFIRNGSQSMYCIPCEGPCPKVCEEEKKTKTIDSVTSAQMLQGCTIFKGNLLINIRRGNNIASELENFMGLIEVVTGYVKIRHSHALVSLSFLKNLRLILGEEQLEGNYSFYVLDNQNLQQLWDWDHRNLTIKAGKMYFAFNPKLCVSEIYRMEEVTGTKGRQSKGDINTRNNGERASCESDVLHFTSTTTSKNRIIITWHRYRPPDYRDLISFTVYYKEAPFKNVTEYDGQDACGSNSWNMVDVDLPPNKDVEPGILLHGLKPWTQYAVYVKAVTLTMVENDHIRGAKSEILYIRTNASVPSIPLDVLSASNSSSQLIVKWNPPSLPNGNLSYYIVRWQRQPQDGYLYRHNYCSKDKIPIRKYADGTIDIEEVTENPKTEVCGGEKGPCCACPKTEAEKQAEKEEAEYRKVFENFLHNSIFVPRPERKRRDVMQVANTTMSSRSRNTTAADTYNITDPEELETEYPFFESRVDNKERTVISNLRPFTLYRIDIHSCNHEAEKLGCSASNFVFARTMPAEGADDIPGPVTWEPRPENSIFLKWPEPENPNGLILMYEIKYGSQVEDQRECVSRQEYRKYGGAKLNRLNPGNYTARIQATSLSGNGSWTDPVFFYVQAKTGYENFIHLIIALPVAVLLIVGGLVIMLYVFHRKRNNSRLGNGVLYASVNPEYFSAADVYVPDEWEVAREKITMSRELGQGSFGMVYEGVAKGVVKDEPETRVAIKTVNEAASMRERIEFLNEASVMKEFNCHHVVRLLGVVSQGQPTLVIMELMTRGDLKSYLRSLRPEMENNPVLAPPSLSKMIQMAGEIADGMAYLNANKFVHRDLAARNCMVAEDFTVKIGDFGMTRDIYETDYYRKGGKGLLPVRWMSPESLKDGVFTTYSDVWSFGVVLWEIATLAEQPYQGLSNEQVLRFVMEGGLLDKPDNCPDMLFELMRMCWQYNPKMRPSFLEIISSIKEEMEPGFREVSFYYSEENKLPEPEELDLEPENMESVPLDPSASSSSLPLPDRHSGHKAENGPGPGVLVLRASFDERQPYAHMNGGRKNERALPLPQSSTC

Row | IC50 ([1]; values for the four kinases range from 1971 μM to no inhibition, read-out: α-50 value for LCK) [µM] | IC50 ([2]; values for the four kinases range from 1971 μM to no inhibition, read-out: α-50 value for IGFR) [µM] | EC50 [3] [µM] | Inhibition of LCK [1, 4] | Inhibition of IGFR [2, 4] | Compound
1 | ≥ 1970 | ≥ 1970 | 11.6 |  |  | NC1=NC(=O)C(=C2CCNC(=O)c3[nH]ccc32)N1 [DBH-2FB]
2 |  |  | 23.4 to 34.4 | weak | weak | NC1=NC(=O)C(=C2CCNC(=O)c3[nH]ccc32)N1 [DBH, 4-(2-amino-4-oxo-2-imidazolin-5-ylidene)-4,5,6,7-tetrahydropyrrolo(2,3-c) azepine-8-one]
